In US4931471A, “Amides of paramethoxycinnamic and utilization thereof as solar filters” (priority 1985, dated 1990):

Tests used:
[1] = UV spectrum (absorption maximum); assay type: physicochemical
[2] = Degradation in rat skin homogenate (TLC after 12 h); assay type: in vitro ADME
Method: The hypodermis was carefully detached by means of a razor blade. The remaining epidermis and dermis were cut into thin lamellae and placed in a conical flask containing 20 ml of phosphate buffer of pH 8. The lamellae were then ground in a Potter mill with large teeth so as to prevent the proteases from being released from the cell nuclei. The preparation obtained was centrifuged at 25,000 rpm and the supernatant was removed. 10 μmol of the test product were suspended in 4 ml of the homogenate. After 12 h, the solutions were analyzed by TLC.
When using rat skin homogenates such as those described above, no degradation of the amides according to Examples I and III to XI was observed, whereas the amide of Example II undergoes 30% degradation.

[3] = tested on: esterases in the skin and plasma; conditions: loss of UV-B filtering power on the skin; cited from earlier work
[4] = man; cited from earlier work

| Compound | UV spectrum: maximum ([1]; CHCl3) | other results |
| --- | --- | --- |
| COc1ccc(C=CC(=O)N2CCCCC2)cc1 [Example I, N-(4-Methoxycinnamoyl)piperidine] | 295 nm | – |
| COC(=O)[C@H](CCSC)NC(=O)C=Cc1ccc(OC)cc1 [Example II, Methyl ester of N-(4-methoxycinnamoyl)-L-methionine] | 309 nm | degradation (in words) [2]: slightly degraded; metabolised at 12 h ([2]; pH 8): 30% |
| COC(=O)[C@H](CSC)NC(=O)C=Cc1ccc(OC)cc1 [Example V, Methyl ester of S-methyl-N-(4-methoxycinnamoyl)-L-cysteine] | 306 nm | – |
| COC(=O)[C@H](CSCc1ccccc1)NC(=O)C=Cc1ccc(OC)cc1 [Example VI, Methyl ester of S-benzyl-N-(4-methoxycinnamoyl)-L-cysteine] | 310 nm | – |
| COC(=O)[C@H](Cc1ccc(O)cc1)NC(=O)C=Cc1ccc(OC)cc1 [Example VII, Methyl ester of N-(4-methoxycinnamoyl)-L-tyrosine] | 312 nm | – |
| COC(=O)C=Cc1cn(C(=O)C=Cc2ccc(OC)cc2)cn1 [Example VIII, Methyl ester of (4-methoxycinnamoyl)imidazol-4-ylprop-2-enoic acid (amide of paramethoxycinnamic acid and the methyl ester of urocanic acid)] | – | UV spectrum: maximum ([1]; 100° ethanol): 350 nm |
| COC(=O)[C@H](CS)NC(=O)C=Cc1ccc(OC)cc1 [III, Methyl ester of N-(4-methoxycinnamoyl)-L-cysteine] | 314 nm | – |
| COC(=O)[C@H](CSSC[C@H](NC(=O)C=Cc1ccc(OC)cc1)C(=O)OC)NC(=O)C=Cc1ccc(OC)cc1 [IV, Dimethyl ester of N,N'-di(4-methoxycinnamoyl)-L-cystine] | 309 nm | – |
| CCCCC(CC)COC(=O)C=Cc1ccc(OC)cc1 (stereo not drawn) [Ibis] | – | hydrolysis under the influence of the esterases in the skin and plasma [3]: hydrolyzes to p-methoxycinnamic acid |
| O=C(C=Cc1c[nH]cn1)N1CCCCC1 [X, N-[3-(1H-Imidazol-4-yl)-1-oxoprop-2-enyl]piperidine] | 285 nm | – |
| COC(=O)/C=C/c1cn(C(=O)C=Cc2ccc(OC)cc2)cn1 [XI, Amide of paramethoxycinnamic acid and the methyl ester of trans-urocanic acid] | – | absorbing UV-A and UV-B radiation simultaneously ([1]; in words): capable of absorbing UV-A and UV-B radiation simultaneously |
| O=C(O)/C=C/c1c[nH]cn1 [urocanic acid] | – | passage into the blood [4]: passage into human blood |
| Amide of paramethoxycinnamic acid and the methyl ester of oxidized qlutathione [IX] | 309 nm | – |
